# Laboratory results from US20250243488A1, “METHODS OF MODULATING PROGRANULIN EXPRESSION USING ANTISENSE OLIGONUCLEOTIDES TARGETING REGULATORY RNAS” (Camp4 Therapeutics Corporation, priority 2022, published 2025).
# Oligonucleotides are written 5' to 3', each unit as a sugar letter and its base; * is a phosphorothioate linkage, no mark a phosphodiester; rarer units and linkages stand in square brackets, end groups in braces. Plain capitals give the bases only. e = 2'-O-(2-methoxyethyl) (MOE); l = locked nucleic acid (LNA); [5mC] = 5-methylcytosine; d = 2'-deoxy (DNA)
# Tested on: GRN mRNA
# Experiment: GRN mRNA qPCR in SK-N-AS cells transfected with ASOs
# Type: cell-based, human
# Settings: SK-N-AS; for hGRN mRNA FC / 120 nM FC (GRN mRNA): 120 nM
# Method in brief: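 Human neuroblastoma SK-N-AS cells transfected with ASOs at increasing concentrations (20 to 160 nM in initial titrations); GRN mRNA quantified by qPCR after 48 hours. Normalized to GAPDH and PPIA, fold change relative to steric non-targeting control ASO(s) (sNTC/CO-1589, with CO-3772 and CO-1929 in some series).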
# [1] = Table 9, 48 hours post-transfection, normalized to CO-1589
# [2] = Table 12, normalized to CO-1589
# [3] = Table 6, normalized to CO-3772, CO-1589 and CO-1929
# [4] = Table 3, normalized to CO-3772 and CO-1589 (sNTC1)
# [5] = Table 13, normalized to CO-1589
# [6] = Table 11, 48 hours, normalized to CO-1589
# [7] = Table 8, normalized to CO-1589 (sNTC1)
# [8] = Table 10, 48 hours, normalized to CO-1589
# [9] = Table 7, normalized to CO-1589 (sNTC1)
substance,measurement,setting,value
CO-4640: ASO designed to target intergenic enhancers (eRNA) (antisense eG*e[5mC]*e[5mC]*e[5mC]*e[5mC]*e[5mC]*eT*eA*eG*eA*eG*eG*eA*e[5mC]*eA*eT*eT*eT*eT*eT),hGRN mRNA FC,[1],1.0 FC
CO-4587: ASO designed to target intergenic enhancers (eRNA) (antisense eT*eT*e[5mC]*eT*eA*eA*eA*e[5mC]*eG*e[5mC]*eG*eA*eA*eG*eT*eG*eG*eG*eT*eG),hGRN mRNA FC,[1],1.2 FC
CO-6400: ASO based on parent ASO CO-3462 (antisense eG*eT*eA*eG*eG*eA*eG*eA*eA*eT*e[5mC]*eG*e[5mC]*eT*eT*eT*eG*eG*eG*eA*eG*e[5mC]),30 nM FC (GRN mRNA),[2],1.1 FC
same,60 nM FC (GRN mRNA),[2],1.3 FC
same,120 nM FC (GRN mRNA),[2],1.3 FC
CO-4599: ASO designed to target intergenic enhancers (eRNA) (antisense eG*eG*e[5mC]*e[5mC]*eA*eA*e[5mC]*eT*eA*eT*e[5mC]*eA*eG*e[5mC]*eT*eT*eT*e[5mC]*e[5mC]*e[5mC]),hGRN mRNA FC,[1],1.0 FC
CO-4457: mixed PO/PS bond version of CO-3431 (antisense eA*eT*eTeGe[5mC]eAeGeTeGeAe[5mC]eGe[5mC]e[5mC]e[5mC]e[5mC]eGeT*eT*eA),30 nM FC (GRN mRNA),[3],0.2 FC
same,60 nM FC (GRN mRNA),[3],0.1 FC
same,120 nM FC (GRN mRNA),[3],0.1 FC
CO-4355: LNA/PS modified ASO based on CO-3423 (antisense eG*eG*lA*e[5mC]*lT*eT*lG*eG*lG*eA*lG*eT*lG*eG*lT*eG*lA*e[5mC]*eT*eG),30 nM FC (GRN mRNA),[4],1.6 FC
same,60 nM FC (GRN mRNA),[4],1.8 FC
same,120 nM FC (GRN mRNA),[4],1.9 FC
CO-6420: ASO based on parent ASOs CO-4363 and CO-4364 (eG*eG*lA*e[5mC]*eT*lT*eG*eG*lG*eA*eG*lT*eG*eG*lT*eG*eA*l[5mC]*eT*eG*lA*eA*e[5mC]),30 nM FC (GRN mRNA),[5],1.4 FC
same,60 nM FC (GRN mRNA),[5],2.7 FC
same,120 nM FC (GRN mRNA),[5],2.2 FC
CO-6399: ASO based on parent ASO CO-3462 (antisense eG*eT*eA*eG*eG*eA*dG*dA*dA*dT*d[5mC]*dG*d[5mC]*dT*dT*dT*eG*eG*eG*eA*eG*e[5mC]),30 nM FC (GRN mRNA),[2],1.3 FC
same,60 nM FC (GRN mRNA),[2],1.6 FC
same,120 nM FC (GRN mRNA),[2],1.9 FC
CO-4591: ASO designed to target intergenic enhancers (eRNA) (antisense eG*eA*eT*eA*eG*eT*eT*eG*eG*e[5mC]*e[5mC]*e[5mC]*e[5mC]*eT*e[5mC]*eG*eG*eA*eG*eT),hGRN mRNA FC,[1],1.1 FC
CO-4629: ASO designed to target intergenic enhancers (eRNA) (antisense eA*eT*eG*eG*e[5mC]*eA*eA*eA*eT*eG*eA*e[5mC]*e[5mC]*eT*eT*e[5mC]*eG*eG*eT*eA),hGRN mRNA FC,[1],1.1 FC
CO-6381: ASO based on parent ASO CO-3462 (antisense eT*eG*eA*eT*e[5mC]*eA*eG*e[5mC]*eT*eT*eG*eG*eG*e[5mC]*eG*eA*e[5mC]*eT*eG*eA),30 nM FC (GRN mRNA),[2],0.8 FC
same,60 nM FC (GRN mRNA),[2],0.7 FC
same,120 nM FC (GRN mRNA),[2],1.0 FC
CO-6447: ASO designed to target an intragenic enhancer RNA (eRNA) (eA*eT*eG*eG*eT*eT*e[5mC]*eT*eA*e[5mC]*e[5mC]*eT*eG*e[5mC]*eT*eG*eT*eG*eA*eG),hGRN mRNA FC,[6],1.2 FC
CO-6416: ASO based on parent ASOs CO-4363 and CO-4364 (eG*eG*lA*e[5mC]*eT*lT*eG*eG*lG*eA*eG*lT*eG*eG*lT*eG*eA*l[5mC]*eT*eG*eA),30 nM FC (GRN mRNA),[5],1.4 FC
same,60 nM FC (GRN mRNA),[5],1.6 FC
same,120 nM FC (GRN mRNA),[5],2.2 FC
CO-6519: ASO based on parent ASO CO-3462 (antisense eT*eA*eG*eG*eA*eGeAeAeTe[5mC]eGe[5mC]eTeTeTeGeGeG*eA*eG),30 nM FC (GRN mRNA),[2],1.1 FC
same,60 nM FC (GRN mRNA),[2],1.0 FC
same,120 nM FC (GRN mRNA),[2],0.9 FC
CO-4627: ASO designed to target intergenic enhancers (eRNA) (antisense eA*e[5mC]*eT*e[5mC]*eA*eA*eT*eG*e[5mC]*eA*eT*eA*eG*e[5mC]*eA*eG*eA*eA*eT*eA),hGRN mRNA FC,[1],1.3 FC
CO-6448: ASO designed to target an intragenic enhancer RNA (eRNA) (eT*e[5mC]*e[5mC]*e[5mC]*eG*eG*eT*eG*e[5mC]*e[5mC]*e[5mC]*eT*eG*eA*eT*eG*eG*eT*eT*e[5mC]),hGRN mRNA FC,[6],1.1 FC
"CO-5289: ASO based on CO-3463 incorporating additional LNA modifications (antisense GGATAGGATAGGAGCGAGCC; LNA/MOE mixmer, PS backbone, 5-methylcytosine; listed as RNA; modified_base 1..20: mod_base = OTHER; note = Phosphorothioate linkage; modified_base 1..2: mod_base = OTHER; note = locked nucleic acid; modified_base 3: mod_base = OTHER; note = 2'-O-(2-methoxyethyl) ribonucleotide; modified_base 4: mod_base)",GRN mRNA upregulation as compared to control ASO CO-1589,Table 8 series,2 fold
same,7.5 nM FC (GRN mRNA),[7],1.4 FC
same,13 nM FC (GRN mRNA),[7],1.4 FC
same,30 nM FC (GRN mRNA),[7],1.5 FC
same,60 nM FC (GRN mRNA),[7],1.9 FC
same,120 nM FC (GRN mRNA),[7],1.9 FC
same,150 nM FC (GRN mRNA),[7],1.9 FC
CO-4611: ASO designed to target intergenic enhancers (eRNA) (antisense eT*eA*eT*eT*eA*eA*eT*e[5mC]*e[5mC]*eA*e[5mC]*eG*e[5mC]*eT*eG*eT*e[5mC]*e[5mC]*e[5mC]*eA),hit identification (GRN mRNA dose escalation),"3.75 nM to 120 nM, 48 hours",initial hits
same,hGRN mRNA FC,[1],1.4 FC
same,3.75 nM FC (GRN mRNA),"Table 10, 3.75 nM, 48 hours, normalized to CO-1589",1.1 FC
same,7.5 nM FC (GRN mRNA),[8],1.1 FC
same,15 nM FC (GRN mRNA),"Table 10, 15 nM, 48 hours, normalized to CO-1589",1.1 FC
same,30 nM FC (GRN mRNA),[8],1.1 FC
same,60 nM FC (GRN mRNA),[8],1.1 FC
same,120 nM FC (GRN mRNA),[8],1.3 FC
"CO-5267: CO-3423 with additional LNA tiling and PO bond modifications (antisense GGACTTGGGAGTGGTGACTG; 2'-MOE, mixed PS/PO, 5-methylcytosine; listed as RNA; modified_base 1..9: mod_base = OTHER; note = Phosphorothioate linkage; modified_base 17..20: mod_base = OTHER; modified_base 1..20: mod_base = OTHER; note = 2'-O-(2-methoxyethyl) ribonucleotide; modified_base 4)",7.5 nM FC (GRN mRNA),[9],1.0 FC
same,13 nM FC (GRN mRNA),[9],1.0 FC
same,30 nM FC (GRN mRNA),[9],1.2 FC
same,60 nM FC (GRN mRNA),[9],1.7 FC
same,120 nM FC (GRN mRNA),[9],1.9 FC
same,150 nM FC (GRN mRNA),[9],2.3 FC
CO-6391: ASO based on parent ASO CO-3462 (antisense eT*eA*eG*eG*eA*lG*eA*eA*lT*e[5mC]*eG*l[5mC]*eT*eT*lT*eG*eG*eG*eA*eG),30 nM FC (GRN mRNA),[2],1.3 FC
same,60 nM FC (GRN mRNA),[2],1.0 FC
same,120 nM FC (GRN mRNA),[2],1.6 FC
CO-6438: ASO designed to target an intragenic enhancer RNA (eRNA) (e[5mC]*eT*eA*e[5mC]*eT*eG*eA*eG*e[5mC]*e[5mC]*eT*eG*eG*eA*eA*eG*eT*eG*eA*e[5mC]),hGRN mRNA FC,[6],1.2 FC
